In publication PMC11337205, “Unraveling Interspecies Differences in the Phase I Hepatic Metabolism of Alternariol and Alternariol Monomethyl Ether: Closing Data Gaps for a Comprehensive Risk Assessment” (Chemical Research in Toxicology, 2024):
Where two headings read alike, the source gives them in different places.

Tests used:
[1] = Phase I metabolism kinetics (parent toxin loss) in NADPH-fortified rat liver microsomes, LC-MS/MS; assay type: in vitro ADME, Sprague–Dawley rat; conditions: for microsomal CLint: Sprague-Dawley, rat, pH 7.4, rat LMs, read-out: CLint (intrinsic clearance)
Experimental: Pooled human LMs and pooled Sprague–Dawley rat hepatic microsomes, both originating from male donors, were purchased from Sigma-Aldrich (St. Louis, MO, USA) and Gibco, Thermo Fisher Scientific (Waltham, MA, USA), respectively. Porcine LMs were prepared according to an in-house-developed protocol based on the publication of Knights et al.[32] The liver of an approximately four-month-old female “Large White” (or “German Edelschwein”) pig was obtained from a local slaughterhouse. After slaughtering, the liver was placed on ice for about an hour, kept in ice-cold 50 mM tris(hydroxymethyl)aminomethane hydrochloride (Tris–HCl) (pH 7.4) for an additional hour while being transported, and processed immediately.
The kinetics of the phase I metabolism of AOH and AME was investigated by incubating human, rat (both 1 mg protein/mL), and porcine LMs (2 mg protein/mL) with 1, 10, 20, 50, and 100 μM AOH or 1, 10, 20, and 50 μM AME based on the protocol by Al-Subeihi et al.[34] The incubation solution contained a final concentration of 3 mM NADPH and 1 mM ascorbic acid in 200 mM Tris–HCl (pH 7.4). After preincubation (37 °C, 1 min, mixing at 250–300 rpm), the toxin stock was added in a 1:100 dilution, resulting in a total DMSO content of 1% and the desired toxin concentration. DMSO was selected for this assay because it is the least inhibitory of the solvents studied by Busby et al. on CYP1A1,[35] the primary enzyme involved in the hydroxylation of AOH and AME.[26] The well-established solubility of the test compounds in DMSO and DMSO-containing aqueous buffers facilitated laboratory work and ensured consistency with existing literature, thereby improving the comparability of results across studies, including those of Pfeiffer and colleagues.[25] In a preliminary investigation, incubation times of 5 and 10 min were chosen because they fall within the linear range of the transformation rate–time relationship, thereby ensuring initial rate conditions (Figure S1). When the selected incubation time (0–10 min) passed, one part of the sample was pipetted into two parts of ice-cold extraction solvent (acetonitrile–methanol, 1:1, v/v) for reaction termination. Subsequently, the samples were placed into the freezer (−20 °C) for at least an hour, centrifuged (15 min, 18,000g, 4 °C), and further diluted in methanol–water (3:7, v/v) prior to LC–MS measurements. In the solvent control, the toxin was substituted with DMSO in the incubation solution. Control incubations were performed without the cofactor NADPH or with heat-inactivated microsomes (98 °C, 10 min, mixing at 300 rpm).
The quantification of selected analytes using external calibration (MS parameters listed in Supporting Information Table S1) was conducted on a high-performance liquid chromatographic system (Dionex UltiMate 3000 UHPLC, Dionex Softron GmbH, Germering, Germany) coupled to a triple quadrupole mass spectrometer (TSQ Vantage, Thermo Fisher Scientific, Waltham, MA, USA), equipped with a heated electrospray ionization (ESI) interface. The applied analytical method is based on Puntscher et al.[28],[36] with slight modifications, which are specified below.
In brief, the Ascentis Express C18 column (10 cm × 2.1 mm, 2.7 μm, Supelco, Munich, DE), equipped with the Phenomenex SecurityGuard (C18 Cartridges, 4 × 2.0 mm ID, Phenomenex Ltd. Deutschland, Aschaffenburg, Germany), served as the stationary phase. Eluent A was aqueous ammonium acetate (5 mM, pH adjusted to 8.6 with a 25% ammonia solution), and eluent B was methanol. During the first minute, the column was kept at 30% eluent B. Subsequently, the eluent B content was linearly raised to 100% within 6 min. Thereafter, the column was washed with 100% eluent B for 1.5 min. Lastly, the column was re-equilibrated at the initial conditions, reaching an overall run time of 10 min. The autosampler compartment was kept at 10 °C, while the column oven temperature was maintained at 30 °C. […]

[2] = Pattern of oxidative metabolites in rat LMs by HR-MS; assay type: in vitro ADME, Sprague–Dawley rat; conditions: rat LMs incubated with AME
Experimental: The kinetics of the phase I metabolism of AOH and AME was investigated by incubating human, rat (both 1 mg protein/mL), and porcine LMs (2 mg protein/mL) with 1, 10, 20, 50, and 100 μM AOH or 1, 10, 20, and 50 μM AME based on the protocol by Al-Subeihi et al.[34] The incubation solution contained a final concentration of 3 mM NADPH and 1 mM ascorbic acid in 200 mM Tris–HCl (pH 7.4). After preincubation (37 °C, 1 min, mixing at 250–300 rpm), the toxin stock was added in a 1:100 dilution, resulting in a total DMSO content of 1% and the desired toxin concentration. DMSO was selected for this assay because it is the least inhibitory of the solvents studied by Busby et al. on CYP1A1,[35] the primary enzyme involved in the hydroxylation of AOH and AME.[26] The well-established solubility of the test compounds in DMSO and DMSO-containing aqueous buffers facilitated laboratory work and ensured consistency with existing literature, thereby improving the comparability of results across studies, including those of Pfeiffer and colleagues.[25] […]
Pooled high-resolution MS (HR-MS) samples were analyzed on a Vanquish UHPLC system (Thermo Fisher Scientific, Waltham, MA, USA) connected to a dual-pressure linear trap-quadrupole Orbitrap mass analyzer (Velos ETD, Thermo Fisher Scientific, Waltham, MA, USA). […]

SMILES: Cc1cc(O)cc2oc(=O)c3c(O)cc(O)cc3c12 [AOH, alternariol]
- microsomal CLint ([1]; male, liver microsomes, Michaelis–Menten model, ratio Vmax/Km): 35.9 µL/min/mg
- microsomal CLint ([1]; male, liver microsomes, linear regression, lower concentration range): 29.9 µL/min/mg
- Km ([1]; male, Sprague–Dawley, liver microsomes, pH 7.4, rat LMs 1 mg protein/mL, NADPH, within 10 min, Michaelis–Menten model, read-out: Km (Michaelis constant)): 78.7 µM
- Concentration decrease ([1]; rat LMs, 1 µM toxin, 5 min): 11%
- Concentration decrease ([1]; rat LMs, 1 µM toxin, 10 min): 19%
- Concentration decrease ([1]; rat LMs, 10 µM toxin, 5 min): 13%
- Concentration decrease ([1]; rat LMs, 10 µM toxin, 10 min): 27%
- Concentration decrease ([1]; rat LMs, 20 µM toxin, 5 min): 14%
- Concentration decrease ([1]; rat LMs, 20 µM toxin, 10 min): 28%
- Concentration decrease ([1]; rat LMs, 50 µM toxin, 5 min): 6%
- Concentration decrease ([1]; rat LMs, 50 µM toxin, 10 min): 9%
- Concentration decrease ([1]; rat LMs, 100 µM toxin, 5 min): 5%
- Concentration decrease ([1]; rat LMs, 100 µM toxin, 10 min): 12%
- Vmax (maximum transformation rate) ([1]; rat LMs, within 10 min, Michaelis–Menten model): 2830 pmol/mg/min
- relative abundance among phase I metabolites (in words) [2]: one of the main metabolites
